Several values for one entry are separate records, joined by “and”; a condition that tells them apart may be missing. Equal entries are not always repeated. Where two headings read alike, the source gives them in different places. Where a SMILES comes first, the peptide text is derived from it.

In series [1] the test system is mitochondrial membrane potential. It is filed as cell-based, mouse.
A further series relates to cytochrome c. Format: cell-based, mouse.
In the next series the test system is reactive oxygen species. Format: cell-based, mouse.
The test system of series [2] is cellular dehydrogenase activity.
Where [3] appears, read: Table 4, C2C12 myotubes, 48 h, composite Z-score.
[4] abbreviates: Table 4, C2C12 myotubes, 48 h, JC-1, composite Z-score.
Setting [5] is: composite Z-score vs mock-treated (DMSO) wells, concentration of each compound in μM.

cytochrome c, sequence (P62897 whole entry): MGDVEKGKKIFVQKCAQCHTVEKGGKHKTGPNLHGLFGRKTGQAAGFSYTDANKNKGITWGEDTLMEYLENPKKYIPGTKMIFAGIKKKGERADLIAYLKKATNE

With `C[C@@]1(O)CCOC(=O)C1` (racemic) [mevalonic-DL-acid lactone], the ΔΨm in series [1] is on record as −0.183. Further, in the series on cytochrome c, the cyt c is reported as −0.252.

On to `C[C@@H](N)[C@@H](O)c1ccccc1` [1S,2R-phenylpropanolamine], for which the Viability with C2C12 myotubes came to 0.296. The same compound came in with an ROS in the series on reactive oxygen species of 0.721. Moreover, the ΔΨm in series [1] is recorded as −0.137. In addition, the MTT in series [2] is −1.507. The same compound displayed a cyt c with cytochrome c (composite Z-score vs DMSO, Conc 20 μM) of 0.280.

In the series with C2C12 myotubes, `O=C(O)CCCOc1ccc(Cl)cc1Cl` [2,4-dichlorophenoxybutyric acid] came in with a Viability of 0.337. This compound also displayed an ROS in the series on reactive oxygen species of 0.758. Further, the ΔΨm in series [1] is −0.479. This compound registered an MTT in series [2] of −1.368. In the series on cytochrome c, this compound registered a cyt c of 0.711.

In the series with reactive oxygen species, `C[C@]12CC[C@@H](O)C[C@H]1CC[C@@H]1[C@@H]2CC[C@]2(C)C(=O)CC[C@@H]12` [3-alpha-hydroxy-5-beta-androstan-17-one] had an ROS of 1.400. The same compound displayed a ΔΨm in series [1] of −1.010. The MTT in series [2] is −1.534. In the series on cytochrome c, this compound registered a cyt c of 0.285.

`CC(C)NC[C@@H](O)COc1ccc(CC(N)=O)cc1` [(R)-(+)-atenolol] registered a Viability with C2C12 myotubes of −0.846. The same compound registered an ROS with reactive oxygen species of 1.639. For the same compound, in series [1], the ΔΨm was −0.573. The compound further yielded an MTT in series [2] of −1.053. Also, the cyt c in the series with cytochrome c was −0.033.

The compound `COc1ccc2cc([C@@H](C)C(=O)[O-])ccc2c1.[Na+]` [(R)-naproxen sodium salt] yielded a Viability in the series on C2C12 myotubes of 0.632. The compound also came in with an ROS with reactive oxygen species of −0.736. In addition, in series [1], the ΔΨm was −0.253. For the same compound, in series [2], the MTT amounted to 0.325. The compound also yielded a cyt c in the series with cytochrome c of 0.444.

For the compound `N#CC(C#N)=NNc1cccc(Cl)c1` [CCCP, carbonyl cyanide m-chlorophenylhydrazone, reference compound], the mitochondrial membrane potential entry in series [1] (assay control, FIG. 3-3) is on record as “depolarization”.

On to `CC([C@H](O)c1ccccc1)N(C)C` (stereo partly drawn) [N-methyl (−)ephedrine], for which the ΔΨm in series [1] was −0.068.

The compound `CCN(CC)C(=O)N[C@H]1C[C@@H]2c3cccc4[nH]cc(c34)C[C@H]2N(C)C1` [S(+)-terguride] came in with a ΔΨm in series [1] of −0.585.

For the compound `Cc1c(N(C)C)c(=O)n(-c2ccccc2)n1C` [amidopyrine], the Viability with C2C12 myotubes was 0.691. Moreover, the ROS with reactive oxygen species is given as −0.776. For the same compound, the ΔΨm in series [1] is on record as −0.496. Further, the MTT in series [2] is given as −0.051. This compound also returned a cyt c in the series on cytochrome c of 0.748.

`CC1(C)S[C@@H]2[C@H](NC(=O)[C@H](N)c3ccc(O)cc3)C(=O)N2[C@H]1C(=O)O` [amoxicillin] yielded an ROS in the series on reactive oxygen species of 1.061.

In the series with C2C12 myotubes, `C[C@@H]1[C@H](O)[C@@H](C)/C=C/C=C/C=C/C=C/C=C/C=C/C=C/[C@H](O[C@@H]2O[C@H](C)[C@@H](O)[C@H](N)[C@@H]2O)C[C@@H]2O[C@](O)(C[C@@H](O)C[C@@H](O)[C@H](O)CC[C@@H](O)C[C@@H](O)CC(=O)O[C@H]1C)C[C@H](O)[C@H]2C(=O)O` [amphotericin B] showed a Viability of 1.210. For the same compound, the ROS in the series with reactive oxygen species is given as 0.005. For the same compound, the ΔΨm in series [1] was 0.308. Further, the MTT in series [2] was −0.790. The cyt c in the series on cytochrome c is reported as −0.982.

As for `CC1(C)S[C@@H]2[C@H](NC(=O)Cc3ccccc3)C(=O)N2[C@H]1C(=O)O.CC1(C)S[C@@H]2[C@H](NC(=O)Cc3ccccc3)C(=O)N2[C@H]1C(=O)O.c1ccc(CNCCNCc2ccccc2)cc1` [benzathine benzylpenicillin], in series [1], the ΔΨm was 0.729.

Regarding `CC(=O)[O-].CC(=O)[O-].[Cd+2]` [cadmium acetate], the Viability with C2C12 myotubes was −1.393. Moreover, in the series on reactive oxygen species, the ROS is −1.066. The ΔΨm in series [1] is given as −1.276. Further, in series [2], the MTT was −1.896. In the series on cytochrome c, the cyt c is −2.166.

With `CN(C)CCCN1c2ccccc2CCc2ccc(Cl)cc21` [clomipramine], the ROS in the series on reactive oxygen species is 0.466.

`Clc1ccccc1C(c1ccccc1)(c1ccccc1)n1ccnc1` [clotrimazole] came in with a Viability with C2C12 myotubes of 0.099. In the series with reactive oxygen species, this compound yielded an ROS of 2.521.

In the series with C2C12 myotubes (setting [3]), `COc1cc2c(cc1OC)[C@@H]1C(=O)c3ccc4c(c3O[C@@H]1CO2)C=CC(C)(C)O4` [deguelin(−), reference compound] yielded a Viability of −0.940. In addition, the ROS in the series with reactive oxygen species (setting [3]) turned out to be 0.426. Besides, the ΔΨm in series [1] (setting [4]) is reported as 1.451. Further, in series [2] (setting [3]), the MTT was −4.052.

With `C[C@@H]1C[C@H]2[C@@H]3CCC4=CC(=O)C=C[C@]4(C)[C@@]3(F)[C@@H](O)C[C@]2(C)[C@@]1(O)C(=O)CO` [dexamethasone], the ΔΨm in series [1] was 0.240 and 0.273.

Take `OCCN(CCO)c1nc(N2CCCCC2)c2nc(N(CCO)CCO)nc(N3CCCCC3)c2n1` [dipyridamole]: the Viability in the series with C2C12 myotubes was 2.069 and 1.042. In addition, the ΔΨm in series [1] was 0.298 and 0.474. In addition, the cyt c in the series on cytochrome c is 0.377 and 0.276.

`COc1ccc([C@H]2COc3c(ccc(O)c3OC)C2)c(OC)c1O` [duartin(−), reference compound] returned an ROS in the series on reactive oxygen species (setting [3]) of 0.900.

For `Oc1ccc([C@H]2Oc3cc(O)cc(O)c3C[C@H]2O)cc1` [epiafzelechin(2r,3r)(−), reference compound], the Viability in the series on C2C12 myotubes (setting [3]) is recorded as −0.719. In the series on reactive oxygen species (setting [3]), this compound showed an ROS of 1.019. Moreover, the ΔΨm in series [1] (setting [4]) is −3.118. The MTT in series [2] (setting [3]) is given as −0.486.

Turning to `CC(C)n1c(/C=C/C(O)CC(O)CC(=O)O)c(-c2ccc(F)cc2)c2ccccc21` (stereo not shown) [fluvastatin, reference compound], the MTT activity entry in series [2] (screen, FIG. 9a, in words) is “strong decreases”.

In turn, `CC(C)[N+]1(C)[C@@H]2CC[C@H]1C[C@@H](OC(=O)C(CO)c1ccccc1)C2` (stereo partly shown) [ipratropium] came in with an ROS in the series on reactive oxygen species of 1.245.

For `CC(C(=O)O)c1cccc(C(=O)c2ccccc2)c1` (stereo not shown) [ketoprofen], the ROS with reactive oxygen species is given as 0.545.

Regarding `CC[C@H](C)C(=O)O[C@H]1C[C@@H](C)C=C2C=C[C@H](C)[C@H](CC[C@@H]3C[C@@H](O)CC(=O)O3)[C@H]21` [lovastatin, reference compound], in series [2], the MTT activity result was “strong decreases”. Further, in the series on cytochrome c, the “cyt c (composite Z-score vs DMSO)” value is −1.628.

Regarding `COC(=O)Nc1nc2ccc(SC(C)C)cc2[nH]1` [methiazole, reference compound], the Viability in the series with C2C12 myotubes (setting [3]) is −0.683. Moreover, the ROS in the series with reactive oxygen species (setting [3]) is given as −2.515. The ΔΨm in series [1] (setting [4]) is recorded as 0.040. Besides, in series [2] (setting [3]), the MTT was −0.654.

With `CS(=O)(=O)Nc1ccc([N+](=O)[O-])cc1Oc1ccccc1` [nimesulide], the ROS in the series with reactive oxygen species was 1.468 and 1.174.

Compound `CCC1(c2ccc(N)cc2)CCC(=O)NC1=O` (stereo not shown) [para-aminoglutethimide] registered a ΔΨm in series [1] of −0.416.

`C[C@]12C=CC(=O)C=C1CC[C@@H]1[C@@H]2[C@@H](O)C[C@@]2(C)[C@H]1CC[C@]2(O)C(=O)CO` [prednisolone] displayed an ROS in the series with reactive oxygen species of 0.248.

For `CC(=O)[C@H]1CC[C@H]2[C@@H]3CC=C4C[C@@H](O)CC[C@]4(C)[C@H]3CC[C@]12C` [pregnenolone], the ΔΨm in series [1] was determined as 0.542.

For the compound `C=C(C)[C@H]1Cc2c(ccc3c2O[C@@H]2COc4cc(OC)c(OC)cc4[C@@H]2C3=O)O1` [rotenone, reference compound], the MTT activity entry in series [2] (assay control, FIG. 3-2) is “inhibited”.

As to `CCC(C)(C)C(=O)O[C@H]1C[C@@H](C)C=C2C=C[C@H](C)[C@H](CC[C@@H]3C[C@@H](O)CC(=O)O3)[C@H]21` [simvastatin, reference compound], the MTT activity result in series [2] (screen, FIG. 9a, in words) is listed as “strong decreases”.

For the compound `CN[C@@H]1C[C@H]2O[C@@](C)([C@@H]1OC)n1c3ccccc3c3c4c(c5c6ccccc6n2c5c31)C(=O)NC4` [staurosporine, reference compound], the “cell death (calcein)” value in the series with C2C12 myotubes (assay control, FIG. 3-1) is “cell death in a dose dependent manner”.

The compound `Cc1cc(NS(=O)(=O)c2ccc(N)cc2)no1` [sulfamethoxazole] displayed an ROS in the series with reactive oxygen species of 1.114.

With `CC1=C(CC(=O)O)c2cc(F)ccc2/C1=C\c1ccc([S+](C)[O-])cc1` (stereo not shown) [sulindac], the Viability in the series with C2C12 myotubes is 0.777.

Turning to `COc1cc(Cc2cnc(N)nc2N)cc(OC)c1OC` [trimethoprim], in the series with reactive oxygen species, the ROS came out at 1.375.

The compound `CC[C@H]1OC(=O)C[C@@H](O)[C@H](C)[C@@H](O[C@@H]2O[C@H](C)[C@@H](O[C@H]3C[C@@](C)(O)[C@@H](O)[C@H](C)O3)[C@H](N(C)C)[C@H]2O)[C@@H](CC=O)C[C@@H](C)C(=O)/C=C/C(C)=C/[C@@H]1CO[C@@H]1O[C@H](C)[C@@H](O)[C@@H](OC)[C@H]1OC` [tylosin] came in with a cyt c in the series with cytochrome c (setting [5]) of −0.007.

Take `O=c1ccc2ccc(O)cc2o1` [umbelliferone]: in the series with cytochrome c, the “cyt c (composite Z-score)” value is on record as −0.272.

`CC(C)[C@H](N)C(=O)N[C@@H](Cc1c[nH]c2ccccc12)C(=O)O` [valyltryptophan] (H-Val-Trp-OH): in the series with cytochrome c (setting [5]), the cyt c is on record as −0.626.

`COc1ccc(C(CN(C)C)C2(O)CCCCC2)cc1` (stereo not shown) [venlafaxine] came in with a cyt c with cytochrome c (setting [5]) of 0.627.

In the case of `CC(=O)CC(c1ccccc1)c1c(O)c2ccccc2oc1=O` (stereo not shown) [warfarin], in the series on cytochrome c, the cyt c is listed as 0.267.

`C[C@H]1CCCC(=O)CCC/C=C/c2cc(O)cc(O)c2C(=O)O1` [zearalenone] registered a cyt c with cytochrome c (setting [5]) of −0.185.

For `Cc1cn([C@H]2C[C@H](N=[N+]=[N-])[C@@H](CO)O2)c(=O)[nH]c1=O` [zidovudine], in the series with cytochrome c, the cyt c is given as 0.611 and the “cyt c (composite Z-score vs DMSO mock-treated wells)” value was determined as 0.637.

Regarding (−)-MK 801, the ΔΨm in series [1] was −0.786.

The compound amyleine displayed an MTT in series [2] of −0.719.

As for catechin hydrate [reference compound], the cyt c in the series with cytochrome c is 1.085.

In turn, methyl benzethonium chloride displayed a Viability in the series with C2C12 myotubes of −2.690. Also, the ROS in the series with reactive oxygen species is given as −1.501. The compound further yielded a ΔΨm in series [1] of 0.480. The MTT in series [2] is −4.304.

The compound trisodium ethylenediamine tetracetate came in with a Viability in the series with C2C12 myotubes of −0.946. In addition, the ROS in the series with reactive oxygen species is −0.436. The ΔΨm in series [1] is listed as 0.474. In addition, in series [2], the MTT is −1.123.
